Results from ChEMBL document CHEMBL3046174, “Docking and CoMFA study on novel human CCR5 receptor antagonists” (Med Chem Res, 2013).

Target: C-C chemokine receptor type 5 (Homo sapiens, UniProt P51681)
Test: Antagonist activity at Homo sapiens (human) CCR5 receptor

C-C chemokine receptor type 5, sequence (P51681 whole entry): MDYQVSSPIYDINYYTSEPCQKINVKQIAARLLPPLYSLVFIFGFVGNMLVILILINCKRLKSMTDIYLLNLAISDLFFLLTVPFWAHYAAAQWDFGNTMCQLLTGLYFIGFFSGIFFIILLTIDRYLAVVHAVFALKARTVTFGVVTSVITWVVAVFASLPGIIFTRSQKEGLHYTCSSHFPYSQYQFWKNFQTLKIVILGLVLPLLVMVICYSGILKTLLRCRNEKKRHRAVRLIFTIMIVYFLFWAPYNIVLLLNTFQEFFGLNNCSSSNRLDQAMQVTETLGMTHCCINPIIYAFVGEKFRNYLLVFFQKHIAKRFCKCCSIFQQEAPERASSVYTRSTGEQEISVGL

SMILES	IC50
O=C(NCC1(O)CCC(Cc2cc(Br)ccc2OCc2ccc(Cl)cc2)CC1)Nc1c(Cl)cc(Cl)cc1Cl (stereo not drawn)	0.45 µM
Cc1cc(C)c(NC(=O)NCC2(O)CCC(Cc3cc(Br)ccc3OCc3ccc(Cl)cc3)CC2)c(C)c1 (stereo not drawn)	0.1 µM
O=C(NCC1(O)CCC(Cc2cc(Br)ccc2OCc2ccc(Cl)cc2)CC1)Nc1c(F)cccc1F (stereo not drawn)	0.32 µM
N=C(N)N/N=C/c1cc(Br)ccc1OCc1ccc(F)c(F)c1	3.7 µM
N=C(N)N/N=C/c1cc(Br)ccc1OCc1cccc(Cl)c1	0.839 µM
CC1CCN(CC2(O)CCN(Cc3cc(Br)ccc3OCc3ccc(Cl)cc3)CC2)CC1	0.21 µM
Cc1ccc(NC(=O)NCC2(O)CCC(Cc3cc(Br)ccc3OCc3ccc(Cl)cc3)CC2)cc1 (stereo not drawn)	1.5 µM
O=C(NCC1(O)CCC(Cc2cc(Br)ccc2OCc2ccc(Cl)cc2)CC1)Nc1c(Cl)cccc1Cl (stereo not drawn)	0.057 µM
Cc1cccc(C)c1NC(=O)NCC1(O)CCC(Cc2cc(Br)ccc2OCc2ccc(Cl)cc2)CC1 (stereo not drawn)	0.047 µM
CCc1cccc(CC)c1NC(=O)NCC1(O)CCC(Cc2cc(Br)ccc2OCc2ccc(Cl)cc2)CC1 (stereo not drawn)	0.011 µM
Cc1cc(Br)cc(C)c1NC(=O)NCC1(O)CCC(Cc2cc(Br)ccc2OCc2ccc(Cl)cc2)CC1 (stereo not drawn)	0.17 µM
CC(C)c1cccc(C(C)C)c1NC(=O)NCC1(O)CCC(Cc2cc(Br)ccc2OCc2ccc(Cl)cc2)CC1 (stereo not drawn)	0.035 µM

Other lines, results leading:

IC50	SMILES
1.4 µM	CCN(CC)c1cc(Br)ccc1OCc1ccc(Cl)cc1
0.0929 µM	C/C(=N\NC(=N)N)c1cc(Br)ccc1OCc1ccc(C#N)cc1
0.6 µM	N=C(N)N/N=C/c1cc(Br)ccc1OCc1ccc(Cl)cc1
0.4 µM	CC/C(=N\NC(=N)N)c1cc(Br)ccc1OCc1ccc(Cl)cc1
1 µM	Brc1ccc(COc2ccc(Br)cc2N2CCOCC2)cc1
0.6 µM	CN(C)c1cc(Br)ccc1OCc1ccc(Cl)cc1
